Consider seven compounds from US4335244A, “Monolactate salts of 4'-(9-acridinylamino)methanesulfon-m-anisidide” (Bristol-Myers Company, priority 1980, dated 1982).

The conditions of data set [1]: for Time for which dilute solution remains clear (in words): dilute solutions (e.g. 3-5 mg/ml) of m-AMSA, no precipitation of salt; for Stability (in words): solid form and/or upon reconstitution with water; for Time for which reconstituted solution remained clear: room temperature.
Protocol: (§1) (f) Stability: 15 mg salt was reconstituted with 10 ml sterile water.
For data set [2], the system named is animal tumor systems. Conditions: Cain, et al., Europ. J. Cancer 10:539-549 (1974); cited from earlier work.
The conditions of data set [3]: cited from earlier work.
The nature of data set [4]: Reconstitution with (sterile) water. It is filed as physicochemical. As to the method:
The crystalline m-AMSA monolactate hemiacetonate (10 mg) prepared according to Example 1 was dissolved in 0.5 ml sterile water in an 8.2 ml flint vial. The vial was lyophilized on a laboratory lyophilizer for 16 hours. Sterile water (0.5 ml) was added to the vial. A solution was obtained after two minutes of shaking.
2. For reconstitution, add a sufficient amount of sterile water for
injection to give a 5 mg/ml mAMSA activity solution. The reconstituted

Data set [5] is described as follows: physchem. Conditions: water.
The nature of data set [6]: pH of aqueous solution before lyophilization. It is filed as physicochemical. The note with it: 180 mg in 24 ml sterile water. The method, then:
m-AMSA DL-lactate acetone solvate (180 mg; prepared in Example 6) was dissolved in 24 ml sterile water with stirring. The resulting clear (pH 4.2) solution was passed through a 1 inch 0.45 micron Millipore filter. Two ml of the filtrate was placed in an 8.2 cc flint vial and the solution was lyophilized for 24 hours.

Data set [7] in a line: physchem. Conditions: sterile water.
Protocol: as §1

Broadly, the solubility is the concentration that dissolves in the medium under given conditions. Low values mean little dissolved substance, high ones much dissolved substance.

In brackets after ≈: the same amount, converted by molar mass. Several values for one entry are separate records, joined by “and”; a condition that tells them apart may be missing. Equal entries are not always repeated. Where two headings read alike, the source gives them in different places.

On to `COc1cc(NS(C)(=O)=O)ccc1Nc1c2ccccc2nc2ccccc12` [Example 10, m-AMSA D(-)-Monolactate Hemiacetonate], for which, in data set [1], the “Time for which dilute solution remains clear (in words)” value was “at least several hours”; the “Stability (in words)” value is “excellent stability both in solid form and upon reconstitution with water”.
`COc1cc(NS(C)(=O)=O)ccc1Nc1c2ccccc2nc2ccccc12` [m-AMSA, 4'-(9-acridinylamino)methanesulfon-m-anisidide]: the “Antitumor activity in animal tumor systems” value in data set [2] is reported as “significant antitumor activity in animal tumor systems”. Also, the “Incompatibility of solutions with ions” value in data set [1] (chloride, sulfate and phosphate ions, insoluble salts form) was “incompatible with chloride, sulfate and phosphate”. Moreover, the Clinical evaluation result in data set [3] is “very promising initial results”.
With `COc1cc(NS(C)(=O)=O)ccc1Nc1c2ccccc2nc2ccccc12` [Example 4, m-AMSA Mono DL-Lactate Acetone Solvate], the “Concentration of solution obtained on reconstitution with water” value in data set [4] is 5000 to 7500 µg/mL; in data set [4] (listed as Example 5), 7500 µg/mL. Also, the “Concentration of reconstituted aqueous solution readily obtained” value in data set [4] (3 minutes shaking at 75° F.) is 5000 µg/mL and 7500 µg/mL and 10000 µg/mL. Further, in data set [5] (room temperature), the solubility was 25 mg/mL. Besides, the “Time for which aqueous solution remained clear” value in data set [1] (5 mg/ml, room temperature (17° C.)) is on record as “at least 16 hours”; in data set [1] (7.5 mg/ml, 17° C., listed as Example 5), “at least 16 hours”. Besides, the “Time for which reconstituted solution remained clear” value in data set [1] (7.5 mg/ml) was 24 h; in data set [1] (10 mg/ml), 24 h; in data set [1] (15 mg/ml), 6 h. Moreover, the “Time for which reconstituted solution remains clear” value in data set [1] (5-7.5 mg/ml, 17° C.) is recorded as “at least 6 hours”. For the same compound, the “Time for which dilute solution remains clear (in words)” value in data set [1] is on record as “at least several hours”. For the same compound, in data set [1], the “Stability (in words)” value was “excellent stability both in solid form and upon reconstitution with water”. The compound also had a pH of solution in data set [6] of 4.2.
Take `COc1cc(NS(C)(=O)=O)ccc1Nc1c2ccccc2nc2ccccc12` [Example 7]: the “Concentration of solution obtained on reconstitution with water” value in data set [4] is 7500 µg/mL. Besides, in data set [1] (7.5 mg/ml, 17° C.), the “Time for which aqueous solution remained clear” value is “at least 6 hours”. In data set [1] (7.5 mg/ml, low speed horizontal shaker), the “Time for which shaken solution was clear” value is listed as “up to 5 hours”.
Regarding `COc1cc(NS(C)(=O)=O)ccc1Nc1c2ccccc2nc2ccccc12` [Example 2, Lyophilized L(+)-Monolactate Hemiacetonate of m-AMSA], in data set [4] (10 mg salt lyophilized, 0.5 ml sterile water), the “Shaking time to obtain a solution on reconstitution of lyophilized product” value is on record as “two”.
For the compound `COc1cc(NS(C)(=O)=O)ccc1Nc1c2ccccc2nc2ccccc12` [Example 11], the “Concentration of solution obtainable on reconstitution with water (m-AMSA activity)” value in data set [4] (lyophilized solid, at least 3-5 mg/ml m-AMSA activity, procedure of Example 7 'if repeated') is 3000 to 5000 µg/mL.
In data set [5], `COc1cc(NS(C)(=O)=O)ccc1Nc1c2ccccc2nc2ccccc12` [Example 1, L(+)-Monolactate Hemiacetonate of m-AMSA] came in with a solubility of 5 mg/mL (≈ 12.7 mM). This compound also had a degraded at 336 h in data set [7] of less than 6%. Moreover, in data set [1] (15 mg salt reconstituted with 10 ml sterile water), the “Time for which reconstituted solution was stable” value is “at least 24 hours”. In addition, in data set [1], the “Time for which dilute solution remains clear (in words)” value is recorded as “at least several hours”; the “Stability (in words)” value was “excellent stability both in solid form and upon reconstitution with water”.
